In PubChem BioAssay (NCI):
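GI50 marks 50% less growth. TGI: total growth inhibition.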

Assays:
Assay in all cases: inhibition of tumour cell growth, NCI panel, 384-well format
786-0 renal = system: 786-0 renal
A498 renal = system: A498 renal
A549 NSCLC = system: A549 NSCLC
ACHN renal = system: ACHN renal
BT-549 breast = system: BT-549 breast
CAKI-1 renal = system: CAKI-1 renal
CCRF-CEM leukemia = system: CCRF-CEM leukemia
COLO 205 colon = system: COLO 205 colon
DU-145 prostate = system: DU-145 prostate
EKVX NSCLC = system: EKVX NSCLC
HCC-2998 colon = system: HCC-2998 colon
HCT-116 colon = system: HCT-116 colon
HCT-15 colon = system: HCT-15 colon
HL-60(TB) leukemia = system: HL-60(TB) leukemia
HOP-62 NSCLC = system: HOP-62 NSCLC
HOP-92 NSCLC = system: HOP-92 NSCLC
HS 578T breast = system: HS 578T breast
HT29 colon = system: HT29 colon
IGROV1 ovarian = system: IGROV1 ovarian
K-562 leukemia = system: K-562 leukemia
KM12 colon = system: KM12 colon
LOX IMVI melanoma = system: LOX IMVI melanoma
M14 melanoma = system: M14 melanoma
MALME-3M melanoma = system: MALME-3M melanoma
MCF7 breast = system: MCF7 breast
MDA-MB-435 melanoma = system: MDA-MB-435 melanoma
MDA-MB-468 breast = system: MDA-MB-468 breast
MOLT-4 leukemia = system: MOLT-4 leukemia
NCI-H226 lung = system: NCI-H226 lung
NCI-H23 lung = system: NCI-H23 lung
NCI-H322M lung = system: NCI-H322M lung
NCI-H460 NSCLC = system: NCI-H460 NSCLC
NCI-H522 lung = system: NCI-H522 lung
NCI/ADR-RES ovarian = system: NCI/ADR-RES ovarian
OVCAR-3 ovarian = system: OVCAR-3 ovarian
OVCAR-4 ovarian = system: OVCAR-4 ovarian
OVCAR-8 ovarian = system: OVCAR-8 ovarian
PC-3 prostate = system: PC-3 prostate
RPMI-8226 leukemia = system: RPMI-8226 leukemia
RXF 393 renal = system: RXF 393 renal
SF-268 CNS = system: SF-268 CNS
SF-295 CNS = system: SF-295 CNS
SF-539 CNS = system: SF-539 CNS
SK-MEL-2 melanoma = system: SK-MEL-2 melanoma
SK-MEL-28 melanoma = system: SK-MEL-28 melanoma
SK-MEL-5 melanoma = system: SK-MEL-5 melanoma
SK-OV-3 ovarian = system: SK-OV-3 ovarian
SN12C renal = system: SN12C renal
SNB-19 CNS = system: SNB-19 CNS
SNB-75 CNS = system: SNB-75 CNS
SW-620 colon = system: SW-620 colon
TK-10 renal = system: TK-10 renal
U251 glioblastoma = system: U251 glioblastoma
UACC-257 melanoma = system: UACC-257 melanoma
UACC-62 melanoma = system: UACC-62 melanoma
OVCAR-5 ovarian = system: OVCAR-5 ovarian
T-47D breast = system: T-47D breast
UO-31 renal = system: UO-31 renal

Compound: COc1cc(OC)c(C(=O)C(CN(C)C)CN(C)C)cc1OC
- GI50 ([…]-0 renal): 2.27 µM
- TGI (786-0 renal): 4.92 µM
- GI50 (A498 renal): 12.5 µM
- TGI (A498 renal): 25.1 µM
- GI50 (A549 NSCLC): 14.1 µM
- TGI (A549 NSCLC): 27.6 µM
- GI50 (ACHN renal): 1.41 µM
- TGI (ACHN renal): 2.74 µM
- GI50 (BT-549 breast): 3.06 µM
- TGI (BT-549 breast): 8.06 µM
- GI50 (CAKI-1 renal): 1.02 µM
- TGI (CAKI-1 renal): 2.22 µM
- GI50 (CCRF-CEM leukemia): 0.369 µM
- TGI (CCRF-CEM leukemia): 1.38 µM
- GI50 (COLO 205 colon): 0.696 µM
- TGI (COLO 205 colon): 1.96 µM
- GI50 (DU-145 prostate): 4.56 µM
- TGI (DU-145 prostate): 15 µM
- GI50 (EKVX NSCLC): 10.4 µM
- TGI (EKVX NSCLC): 22.3 µM
- GI50 (HCC-2998 colon): 4.8 µM
- TGI (HCC-2998 colon): 18.6 µM
- GI50 (HCT-116 colon): 1.41 µM
- TGI (HCT-116 colon): 2.82 µM
- GI50 (HCT-15 colon): 1.49 µM
- TGI (HCT-15 colon): 2.88 µM
- GI50 (HL-60(TB) leukemia): 0.146 µM
- TGI (HL-60(TB) leukemia): 0.279 µM
- GI50 (HOP-62 NSCLC): 22 µM
- TGI (HOP-62 NSCLC): 36.6 µM
- GI50 (HOP-92 NSCLC): 2.12 µM
- TGI (HOP-92 NSCLC): 3.66 µM
- GI50 (HS 578T breast): 7.53 µM
- TGI (HS 578T breast): 19.8 µM
- GI50 (HT29 colon): 3.42 µM
- TGI (HT29 colon): 12.9 µM
- GI50 (IGROV1 ovarian): 2.06 µM
- TGI (IGROV1 ovarian): 4.43 µM
- GI50 (K-562 leukemia): 6 µM
- TGI (K-562 leukemia): 18.1 µM
- GI50 (KM12 colon): 3.64 µM
- TGI (KM12 colon): 9.17 µM
- GI50 (LOX IMVI melanoma): 6.55 µM
- TGI (LOX IMVI melanoma): 19.9 µM
- GI50 (M14 melanoma): 2.16 µM
- TGI (M14 melanoma): 4.3 µM
- GI50 (MALME-3M melanoma): 0.999 µM
- TGI (MALME-3M melanoma): 2.17 µM
- GI50 (MCF7 breast): 1.83 µM
- TGI (MCF7 breast): 3.77 µM
- GI50 (MDA-MB-435 melanoma): 3.27 µM
- TGI (MDA-MB-435 melanoma): 8.94 µM
- GI50 (MDA-MB-468 breast): 0.317 µM
- TGI (MDA-MB-468 breast): 0.697 µM
- GI50 (MOLT-4 leukemia): 0.225 µM
- TGI (MOLT-4 leukemia): 0.591 µM
- GI50 (NCI-H226 lung): 1.91 µM
- TGI (NCI-H226 lung): 4.42 µM
- GI50 (NCI-H23 lung): 2.17 µM
- TGI (NCI-H23 lung): 4.18 µM
- GI50 (NCI-H322M lung): 18.4 µM
- TGI (NCI-H322M lung): 32.5 µM
- GI50 (NCI-H460 NSCLC): 2.75 µM
- TGI (NCI-H460 NSCLC): 6.41 µM
- GI50 (NCI-H522 lung): 0.382 µM
- TGI (NCI-H522 lung): 1.57 µM
- GI50 (NCI/ADR-RES ovarian): 2.12 µM
- TGI (NCI/ADR-RES ovarian): 4.11 µM
- GI50 (OVCAR-3 ovarian): 1.71 µM
- TGI (OVCAR-3 ovarian): 3.37 µM
- GI50 (OVCAR-4 ovarian): 1.81 µM
- TGI (OVCAR-4 ovarian): 3.21 µM
- GI50 (OVCAR-8 ovarian): 1.44 µM
- TGI (OVCAR-8 ovarian): 2.84 µM
- GI50 (PC-3 prostate): 3 µM
- TGI (PC-3 prostate): 7.62 µM
- GI50 (RPMI-8226 leukemia): 0.419 µM
- TGI (RPMI-8226 leukemia): 1.14 µM
- GI50 (RXF 393 renal): 1.92 µM
- TGI (RXF 393 renal): 3.44 µM
- GI50 (SF-268 CNS): 17.2 µM
- TGI (SF-268 CNS): 31.1 µM
- GI50 (SF-295 CNS): 19.2 µM
- TGI (SF-295 CNS): 39.3 µM
- GI50 (SF-539 CNS): 1.6 µM
- TGI (SF-539 CNS): 3.06 µM
- GI50 (SK-MEL-2 melanoma): 1.7 µM
- TGI (SK-MEL-2 melanoma): 3.67 µM
- GI50 (SK-MEL-28 melanoma): 3.32 µM
- TGI (SK-MEL-28 melanoma): 7.76 µM
- GI50 (SK-MEL-5 melanoma): 5.64 µM
- TGI (SK-MEL-5 melanoma): 18.4 µM
- GI50 (SK-OV-3 ovarian): 16.9 µM
- TGI (SK-OV-3 ovarian): 30.7 µM
- GI50 (SN12C renal): 1.81 µM
- TGI (SN12C renal): 3.58 µM
- GI50 (SNB-19 CNS): 14.4 µM
- TGI (SNB-19 CNS): 27.7 µM
- GI50 (SNB-75 CNS): 19.8 µM
- TGI (SNB-75 CNS): 34.1 µM
- GI50 (SW-620 colon): 1.14 µM
- TGI (SW-620 colon): 2.44 µM
- GI50 (TK-10 renal): 1.54 µM
- TGI (TK-10 renal): 3.04 µM
- GI50 (U251 glioblastoma): 7.75 µM
- TGI (U251 glioblastoma): 20 µM
- GI50 (UACC-257 melanoma): 1.41 µM
- TGI (UACC-257 melanoma): 2.81 µM
- GI50 (UACC-62 melanoma): 2.06 µM
- TGI (UACC-62 melanoma): 4.4 µM

Compound: S=P(N1CC1)(N1CC1)N1CC1
- GI50 ([…]-0 renal): 32.7 µM
- GI50 (A498 renal): 39.4 µM
- GI50 (A549 NSCLC): 38.4 µM
- GI50 (ACHN renal): 19.9 µM
- TGI (ACHN renal): 63.4 µM
- GI50 (BT-549 breast): 29 µM
- GI50 (CAKI-1 renal): 17.8 µM
- GI50 (CCRF-CEM leukemia): 4.2 µM
- TGI (CCRF-CEM leukemia): 11 µM
- GI50 (DU-145 prostate): 7.82 µM
- TGI (DU-145 prostate): 98.9 µM
- GI50 (HCT-116 colon): 34.1 µM
- GI50 (HCT-15 colon): 33.7 µM
- GI50 (HL-60(TB) leukemia): 1.27 µM
- TGI (HL-60(TB) leukemia): 2.85 µM
- GI50 (HOP-62 NSCLC): 8.65 µM
- TGI (HOP-62 NSCLC): 31.8 µM
- GI50 (HT29 colon): 59.4 µM
- GI50 (K-562 leukemia): 74 µM
- GI50 (KM12 colon): 93.6 µM
- GI50 (LOX IMVI melanoma): 24.9 µM
- GI50 (M14 melanoma): 24.8 µM
- GI50 (MCF7 breast): 21.2 µM
- GI50 (MDA-MB-468 breast): 3.58 µM
- TGI (MDA-MB-468 breast): 18.7 µM
- GI50 (MOLT-4 leukemia): 0.4 µM
- TGI (MOLT-4 leukemia): 1.49 µM
- GI50 (NCI-H226 lung): 61.3 µM
- GI50 (NCI-H23 lung): 17.3 µM
- TGI (NCI-H23 lung): 99.5 µM
- GI50 (NCI-H522 lung): 45.9 µM
- GI50 (NCI/ADR-RES ovarian): 30.1 µM
- GI50 (OVCAR-3 ovarian): 43.3 µM
- GI50 (OVCAR-5 ovarian): 70.4 µM
- GI50 (OVCAR-8 ovarian): 28 µM
- GI50 (RPMI-8226 leukemia): 12 µM
- TGI (RPMI-8226 leukemia): 36.4 µM
- GI50 (RXF 393 renal): 53.9 µM
- GI50 (SF-268 CNS): 9.43 µM
- GI50 (SF-295 CNS): 11.3 µM
- TGI (SF-295 CNS): 31.3 µM
- GI50 (SF-539 CNS): 20.2 µM
- TGI (SF-539 CNS): 92.8 µM
- GI50 (SK-OV-3 ovarian): 29.8 µM
- GI50 (SN12C renal): 9.52 µM
- GI50 (SNB-19 CNS): 41.6 µM
- GI50 (SNB-75 CNS): 22 µM
- GI50 (SW-620 colon): 61.6 µM
- GI50 (T-47D breast): 93.6 µM
- GI50 (U251 glioblastoma): 20.7 µM
- GI50 (UACC-62 melanoma): 11 µM
- GI50 (UO-31 renal): 74.4 µM
